The record followed here is US12528838B2, “Cyclic dominant negative competence stimulating peptide analogs and methods of treating Streptococcus pneumoniae infections” (priority 2019, dated 2026).

Square brackets hold non-standard residues; d marks the D form. Peptide text beside a SMILES is read from it.

The data set in a line: Stability in mouse lungs (BAL fluid analysed by HPLC after intratracheal instillation). To be noted: both sexes, CD1, cell-free bronchoalveolar lavage fluid (BALF), inhaled or intranasal, 400 ug, 400 μg intratracheally, FIG. 14B. The data set is classed as in vivo, CD1 mice. On the procedure: FIGS. 14A-14D. Pharmacological properties of dnCSPs. (FIG. 14A) CSPs were treated with trypsin/chymotrypsin and their degradation monitored by HPLC. (FIG. 14B) CD1 mice (3/cohort, males & females) were intratracheally instilled 400 μg of native or dnCSPs. Mice were bronchial alveolar lavaged (BAL) at indicated times, and cell free BAL fluid (BALF) were analyzed by HPLC. […] (FIGS. 14C-14D) CD1 mice (5/cohorts, males & females) were intratracheally inoculated with MTD doses of native and dnCSPs (200 μg-20 mg/kg). […] Lung sections (FIGS. 14C-14D) and other organs were H&E stained. b=bronchioles; v=vessels.

Consider `CC[C@H](C)[C@H](NC(=O)[C@H](Cc1ccccc1)NC(=O)[C@H](CC(=O)O)NC(=O)[C@H](CCCNC(=N)N)NC(=O)[C@H](Cc1ccccc1)NC(=O)[C@H](Cc1ccccc1)NC(=O)[C@H](CCCCN)NC(=O)[C@H](CO)NC(=O)[C@H](CC(C)C)NC(=O)[C@H](CCCNC(=N)N)NC(=O)[C@H](CCSC)NC(=O)[C@@H](N)CCC(=O)O)C(=O)N[C@@H](CC(C)C)C(=O)N[C@@H](CCC(N)=O)C(=O)N[C@@H](CCCNC(=N)N)C(=O)N[C@@H](CCCCN)C(=O)N[C@@H](CCCCN)C(=O)O` [CSP1, reference compound], for which the half-life is 1.5 h. On to `CC[C@H](C)[C@H](NC(=O)[C@H](CCCNC(=N)N)NC(=O)[C@H](CCSC)NC(=O)[C@@H](N)CCC(=O)O)C(=O)N[C@@H](CO)C(=O)N[C@@H](CCCNC(=N)N)C(=O)N[C@H](C(=O)N[C@H](C(=O)N[C@@H](CC(C)C)C(=O)N[C@H](CC(=O)O)C(=O)N[C@@H](Cc1ccccc1)C(=O)N[C@@H](CC(C)C)C(=O)N[C@@H](Cc1ccccc1)C(=O)N[C@@H](CC(C)C)C(=O)N[C@@H](CCCNC(=N)N)C(=O)N[C@@H](CCCCN)C(=O)N[C@@H](CCCCN)C(=O)O)[C@@H](C)CC)[C@@H](C)CC` [CSP2-d10, E-M-R-I-S-R-I-I-L-d-F-L-F-L-R-K-K] (H-EMRISRIIL[dD]FLFLRKK-OH; N-terminus and C-terminus assumed), for which the half-life is 2.5 h.

By half-life is commonly meant the time in which the quantity being followed falls by half.
